The results in this text go back to ChEMBL document CHEMBL3046833, “Six new triterpenoid saponins from the leaves of Ilex oblonga and their inhibitory activities against TMV replication” (Chem Pharm Bull (Tokyo), 2007).

≈ marks a conversion by molar mass, not a printed value.

Assay [1] relates to Tobacco mosaic virus. The assay is described as follows: Antiviral activity against Tobacco mosaic virus (TMV) assessed as inhibition of viral replication at 0.2 mg/ml after 48 hr by leaf disk method relative to control. It is filed as functional.
Assay [2] concerns Tobacco mosaic virus. The assay is described as follows: Antiviral activity against Tobacco mosaic virus (TMV) assessed as inhibition of viral replication at 0.1 mg/ml after 48 hr by leaf disk method relative to control. The assay is classed as functional.
In assay [3] the test system is Tobacco mosaic virus. The assay is described as follows: Antiviral activity against Tobacco mosaic virus (TMV) assessed as inhibition of viral replication after 48 hr by leaf disk method. It is filed as functional, organism-based.
Assay [4] has as its system Tobacco mosaic virus. The assay is described as follows: Antiviral activity against Tobacco mosaic virus (TMV) assessed as inhibition of viral replication at 0.05 mg/ml after 48 hr by leaf disk method relative to control. The assay is classed as functional.
In assay [5] the test system is Tobacco mosaic virus. The assay is described as follows: Antiviral activity against Tobacco mosaic virus (TMV) assessed as inhibition of viral replication at 0.025 mg/ml after 48 hr by leaf disk method relative to control. It is filed as functional.
Assay [6] deals with Tobacco mosaic virus. The assay is described as follows: Antiviral activity against Tobacco mosaic virus (TMV) assessed as inhibition of viral replication at 0.4 mg/ml after 48 hr by leaf disk method relative to control. It is filed as functional.

Take `CC1=C(C)[C@H]2C3=CC[C@@H]4[C@@]5(C)CC[C@H](O)[C@@](C)(CO)[C@@H]5CC[C@@]4(C)[C@]3(C)CC[C@@]2(C(=O)O[C@@H]2O[C@H](CO)[C@@H](O)[C@H](O)[C@H]2O)CC1`: the inhibition at 200 µg/mL in the assay on Tobacco mosaic virus [1] is 41.1%.

Regarding `CC1=C2C3=CC[C@@H]4[C@@]5(C)CC[C@H](O)[C@@](C)(CO)[C@@H]5CC[C@@]4(C)[C@]3(C)CC[C@@]2(C(=O)O[C@@H]2O[C@H](CO)[C@@H](O)[C@H](O)[C@H]2O)CC[C@H]1C`, the inhibition at 200 µg/mL in the assay on Tobacco mosaic virus [1] turned out to be 47.3%.

Regarding `CC1=C2C3=CC[C@@H]4[C@@]5(C)CC[C@H](O[C@@H]6OC[C@@H](O)[C@H](O)[C@H]6O)C(C)(C)[C@@H]5CC[C@@]4(C)[C@]3(C)CC[C@@]2(C(=O)O[C@@H]2O[C@H](CO)[C@@H](O)[C@H](O)[C@H]2O)CC[C@H]1C`, the inhibition at 200 µg/mL in the assay on Tobacco mosaic virus [1] came to 33%.

With `C=C1C2C3=CC[C@@H]4[C@@]5(C)CC[C@H](O)[C@@](C)(CO)[C@@H]5CC[C@@]4(C)[C@]3(C)CC[C@@]2(C(=O)O[C@@H]2O[C@H](CO)[C@@H](O)[C@H](O)[C@H]2O)CC[C@H]1C` (stereo not given in full), in the assay with Tobacco mosaic virus [1], the inhibition at 200 µg/mL is 29.6%.

For `CC1=C2C3=CC[C@@H]4[C@@]5(C)CC[C@H](O[C@@H]6OC[C@@H](O)[C@H](O)[C@H]6O)[C@@](C)(CO)[C@@H]5CC[C@@]4(C)[C@]3(C)CC[C@@]2(C(=O)O[C@@H]2O[C@H](CO)[C@@H](O)[C@H](O)[C@H]2O)CC[C@H]1C` [OBLONGANOSIDE C], the inhibition at 200 µg/mL with Tobacco mosaic virus [1] was 38.6%.

On to `C=C1C2C3=CC[C@@H]4[C@@]5(C)CC[C@H](O[C@@H]6OC[C@@H](O)[C@H](O)[C@H]6O)C(C)(C)[C@@H]5CC[C@@]4(C)[C@]3(C)CC[C@@]2(C(=O)O[C@@H]2O[C@H](CO)[C@@H](O)[C@H](O)[C@H]2O)CC[C@H]1C` (stereo not given in full) [OBLONGANOSIDE D], for which, in the assay with Tobacco mosaic virus [1], the inhibition at 200 µg/mL was determined as 37.7%.

Regarding `CC1=C(C)[C@H]2C3=CC[C@@H]4[C@@]5(C)CC[C@@H]6O[C@H](CO)OC[C@@]6(C)[C@@H]5CC[C@@]4(C)[C@]3(C)CC[C@@]2(C(=O)O[C@@H]2O[C@H](CO)[C@@H](O)[C@H](O)[C@H]2O)CC1` [Oblonganoside A], in the assay with Tobacco mosaic virus [2], the inhibition at 100 µg/mL came out at 61.9%. Moreover, in the assay on Tobacco mosaic virus [3], the EC50 came out at 74 µg/mL (≈ 110 µM). Moreover, the inhibition at 200 µg/mL in the assay on Tobacco mosaic virus [1] was determined as 80.3%. The inhibition at 50 µg/mL in the assay with Tobacco mosaic virus [4] is 30.1%. For the same compound, the inhibition at 25 µg/mL in the assay with Tobacco mosaic virus [5] came out at 10.1%. The Imax in the assay with Tobacco mosaic virus [6] is 87.3%.

With `CC1=C(C)[C@H]2C3=CC[C@@H]4[C@@]5(C)CC[C@H](O[C@@H]6OC[C@@H](O)[C@H](O)[C@H]6O)C(C)(C)[C@@H]5CC[C@@]4(C)[C@]3(C)CC[C@@]2(C(=O)O[C@@H]2O[C@H](CO)[C@@H](O)[C@H](O)[C@H]2O)CC1` [Oblonganoside B], the inhibition at 200 µg/mL with Tobacco mosaic virus [1] is 56.4%.

On to `C=C1CC[C@]2(C(=O)O[C@@H]3O[C@H](CO)[C@@H](O)[C@H](O)[C@H]3O)CC[C@]3(C)C(=CC[C@@H]4[C@@]5(C)CC[C@H](O)[C@@](C)(CO)[C@@H]5CC[C@]43C)C2[C@]1(C)O` (stereo not given in full) [Oblonganoside E], for which the inhibition at 200 µg/mL in the assay on Tobacco mosaic virus [1] came to 21.5%.

For the compound `C=C1CC[C@]2(C(=O)O[C@@H]3O[C@H](CO)[C@@H](O)[C@H](O)[C@H]3O)CC[C@]3(C)C(=CC[C@@H]4[C@@]5(C)CC[C@H](O[C@@H]6OC[C@@H](O)[C@H](O)[C@H]6O)C(C)(C)[C@@H]5CC[C@]43C)C2[C@]1(C)O` (stereo not given in full) [Oblonganoside F], the inhibition at 200 µg/mL with Tobacco mosaic virus [1] was determined as 39.7%.

As usually defined, the inhibition is how much of the control response was suppressed. For orientation: EC50 means the concentration at which the effect is half-maximal.
